Experimental data published in ChEMBL document CHEMBL4007384, “Synthesis and optimization of furano[3,2-d]pyrimidines as selective spleen tyrosine kinase (Syk) inhibitors” (Bioorg Med Chem Lett, 2016).

Key:
[1] = target: T1, Tyrosine-protein kinase receptor TYRO3 (Homo sapiens, UniProt Q06418); assay: Inhibition of TYRO3 (unknown origin) after 60 mins by TR-FRET assay
T1 sequence (Q06418 whole entry): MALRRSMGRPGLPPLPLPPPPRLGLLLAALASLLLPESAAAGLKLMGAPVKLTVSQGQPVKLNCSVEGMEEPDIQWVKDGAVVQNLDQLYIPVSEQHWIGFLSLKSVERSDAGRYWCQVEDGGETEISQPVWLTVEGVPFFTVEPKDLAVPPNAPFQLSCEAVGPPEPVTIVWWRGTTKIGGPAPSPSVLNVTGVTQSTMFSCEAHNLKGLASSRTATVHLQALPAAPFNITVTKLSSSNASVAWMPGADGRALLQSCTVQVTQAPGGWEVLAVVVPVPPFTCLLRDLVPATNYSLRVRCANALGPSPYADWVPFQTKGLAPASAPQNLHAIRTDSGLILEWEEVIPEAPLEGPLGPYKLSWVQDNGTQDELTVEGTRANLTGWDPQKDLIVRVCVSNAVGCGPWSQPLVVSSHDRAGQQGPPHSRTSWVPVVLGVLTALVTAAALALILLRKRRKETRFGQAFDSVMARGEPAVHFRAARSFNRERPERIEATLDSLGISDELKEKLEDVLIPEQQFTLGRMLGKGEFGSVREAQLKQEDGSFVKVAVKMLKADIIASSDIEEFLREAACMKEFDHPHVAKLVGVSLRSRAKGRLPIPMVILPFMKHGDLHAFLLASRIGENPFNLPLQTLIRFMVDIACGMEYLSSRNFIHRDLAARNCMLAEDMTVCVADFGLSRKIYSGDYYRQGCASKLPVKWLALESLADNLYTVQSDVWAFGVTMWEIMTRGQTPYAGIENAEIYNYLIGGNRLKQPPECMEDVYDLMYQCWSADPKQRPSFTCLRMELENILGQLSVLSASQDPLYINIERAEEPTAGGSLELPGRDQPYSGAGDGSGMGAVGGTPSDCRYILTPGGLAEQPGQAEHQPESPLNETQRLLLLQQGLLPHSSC

[2] = target: T2, Tyrosine-protein kinase JAK3 (Homo sapiens, UniProt P52333); assay: Inhibition of JAK3 (unknown origin) after 60 mins by TR-FRET assay
T2 sequence (P52333 whole entry): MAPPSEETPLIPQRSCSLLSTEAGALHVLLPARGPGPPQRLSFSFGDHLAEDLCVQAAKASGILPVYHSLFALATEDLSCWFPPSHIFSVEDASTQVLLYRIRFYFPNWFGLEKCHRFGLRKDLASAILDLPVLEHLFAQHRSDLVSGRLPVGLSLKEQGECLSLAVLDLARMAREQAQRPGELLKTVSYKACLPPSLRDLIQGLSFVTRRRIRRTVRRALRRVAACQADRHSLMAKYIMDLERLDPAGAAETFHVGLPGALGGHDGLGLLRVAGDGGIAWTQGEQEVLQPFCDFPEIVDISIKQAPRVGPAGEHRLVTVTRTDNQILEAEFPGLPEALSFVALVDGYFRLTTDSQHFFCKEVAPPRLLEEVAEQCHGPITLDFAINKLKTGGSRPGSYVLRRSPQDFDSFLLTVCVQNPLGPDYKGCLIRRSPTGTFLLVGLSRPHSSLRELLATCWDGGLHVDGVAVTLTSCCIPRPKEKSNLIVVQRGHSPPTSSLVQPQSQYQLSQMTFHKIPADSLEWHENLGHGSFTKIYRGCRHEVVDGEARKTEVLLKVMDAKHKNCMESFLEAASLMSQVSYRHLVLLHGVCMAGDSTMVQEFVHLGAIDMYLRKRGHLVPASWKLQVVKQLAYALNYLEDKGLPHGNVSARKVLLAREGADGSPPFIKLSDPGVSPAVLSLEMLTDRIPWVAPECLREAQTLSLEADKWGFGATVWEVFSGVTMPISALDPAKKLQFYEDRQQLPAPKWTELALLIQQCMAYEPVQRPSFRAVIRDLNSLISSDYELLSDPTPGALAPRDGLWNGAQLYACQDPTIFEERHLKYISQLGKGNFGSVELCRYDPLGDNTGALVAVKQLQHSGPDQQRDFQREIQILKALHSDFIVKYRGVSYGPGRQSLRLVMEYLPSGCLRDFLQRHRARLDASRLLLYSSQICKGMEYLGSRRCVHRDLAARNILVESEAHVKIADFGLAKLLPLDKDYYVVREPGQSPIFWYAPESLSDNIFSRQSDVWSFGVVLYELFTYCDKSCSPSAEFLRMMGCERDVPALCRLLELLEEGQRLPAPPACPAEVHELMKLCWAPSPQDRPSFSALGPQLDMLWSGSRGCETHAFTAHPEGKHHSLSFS

[3] = target: BDNF/NT-3 growth factors receptor (Homo sapiens, UniProt Q16620); assay: Inhibition of TrkB (unknown origin) after 60 mins by TR-FRET assay
Aurora kinase B = Aurora kinase B (Homo sapiens, UniProt Q96GD4); assay: Inhibition of AURKB (unknown origin) after 60 mins by TR-FRET assay
Sequence of Aurora kinase B (Q96GD4 whole entry): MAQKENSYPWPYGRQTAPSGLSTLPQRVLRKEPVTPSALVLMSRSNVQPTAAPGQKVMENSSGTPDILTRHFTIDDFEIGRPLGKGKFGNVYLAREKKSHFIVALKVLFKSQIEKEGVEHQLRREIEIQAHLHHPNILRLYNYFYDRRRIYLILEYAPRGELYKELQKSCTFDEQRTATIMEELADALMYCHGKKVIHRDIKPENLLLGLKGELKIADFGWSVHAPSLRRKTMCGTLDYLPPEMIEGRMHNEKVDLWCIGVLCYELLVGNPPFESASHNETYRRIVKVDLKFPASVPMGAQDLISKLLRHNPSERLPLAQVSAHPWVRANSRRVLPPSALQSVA

[4] = target: Death-associated protein kinase 3 (Homo sapiens, UniProt O43293); assay: Inhibition of ZIPK (unknown origin) after 60 mins by TR-FRET assay
Sequence of Death-associated protein kinase 3 (O43293 whole entry): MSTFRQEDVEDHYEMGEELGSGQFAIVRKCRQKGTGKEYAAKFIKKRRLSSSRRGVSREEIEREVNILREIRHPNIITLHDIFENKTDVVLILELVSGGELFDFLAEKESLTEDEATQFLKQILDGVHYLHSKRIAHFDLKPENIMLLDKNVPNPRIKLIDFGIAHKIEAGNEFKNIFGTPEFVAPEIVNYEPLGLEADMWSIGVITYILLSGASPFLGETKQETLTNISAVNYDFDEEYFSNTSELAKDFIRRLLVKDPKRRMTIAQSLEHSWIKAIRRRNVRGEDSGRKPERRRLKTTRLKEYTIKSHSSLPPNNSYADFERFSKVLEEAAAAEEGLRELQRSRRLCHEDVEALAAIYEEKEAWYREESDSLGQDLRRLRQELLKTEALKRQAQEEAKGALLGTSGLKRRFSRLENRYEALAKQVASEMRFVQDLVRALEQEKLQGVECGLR

[5] = target: Dual specificity mitogen-activated protein kinase kinase 2 (Homo sapiens, UniProt P36507); assay: Inhibition of MEK2 (unknown origin) after 60 mins by TR-FRET assay
Sequence of Dual specificity mitogen-activated protein kinase kinase 2 (P36507 whole entry): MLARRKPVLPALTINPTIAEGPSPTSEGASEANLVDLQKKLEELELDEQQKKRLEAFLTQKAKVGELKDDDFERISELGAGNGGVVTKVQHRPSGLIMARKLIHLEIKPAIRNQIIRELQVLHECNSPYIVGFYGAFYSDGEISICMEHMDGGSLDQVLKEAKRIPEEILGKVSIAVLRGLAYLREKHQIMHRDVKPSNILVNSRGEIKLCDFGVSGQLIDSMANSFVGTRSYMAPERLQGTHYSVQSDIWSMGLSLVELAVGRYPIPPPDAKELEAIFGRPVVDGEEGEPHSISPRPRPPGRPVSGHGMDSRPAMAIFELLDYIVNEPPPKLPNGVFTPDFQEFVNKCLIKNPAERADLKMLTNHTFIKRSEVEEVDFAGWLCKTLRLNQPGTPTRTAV

[6] = target: Dual specificity mitogen-activated protein kinase kinase 1 (Homo sapiens, UniProt Q02750); assay: Inhibition of MEK1 (unknown origin) after 60 mins by TR-FRET assay
Sequence of Dual specificity mitogen-activated protein kinase kinase 1 (Q02750 whole entry): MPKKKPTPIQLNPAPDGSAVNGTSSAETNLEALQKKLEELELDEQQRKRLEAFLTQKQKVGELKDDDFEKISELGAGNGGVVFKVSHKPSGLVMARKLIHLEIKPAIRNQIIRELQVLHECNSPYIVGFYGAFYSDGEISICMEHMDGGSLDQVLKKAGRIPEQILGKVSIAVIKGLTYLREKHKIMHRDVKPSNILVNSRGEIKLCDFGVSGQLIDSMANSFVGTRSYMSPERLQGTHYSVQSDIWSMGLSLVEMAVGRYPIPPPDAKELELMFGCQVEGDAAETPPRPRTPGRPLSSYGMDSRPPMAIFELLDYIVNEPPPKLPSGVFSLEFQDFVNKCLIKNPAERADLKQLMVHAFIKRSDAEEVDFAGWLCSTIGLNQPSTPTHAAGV

[7] = target: Mitogen-activated protein kinase 9 (Homo sapiens, UniProt P45984); assay: Inhibition of JNK2 (unknown origin) after 60 mins by TR-FRET assay
Sequence of Mitogen-activated protein kinase 9 (P45984 whole entry): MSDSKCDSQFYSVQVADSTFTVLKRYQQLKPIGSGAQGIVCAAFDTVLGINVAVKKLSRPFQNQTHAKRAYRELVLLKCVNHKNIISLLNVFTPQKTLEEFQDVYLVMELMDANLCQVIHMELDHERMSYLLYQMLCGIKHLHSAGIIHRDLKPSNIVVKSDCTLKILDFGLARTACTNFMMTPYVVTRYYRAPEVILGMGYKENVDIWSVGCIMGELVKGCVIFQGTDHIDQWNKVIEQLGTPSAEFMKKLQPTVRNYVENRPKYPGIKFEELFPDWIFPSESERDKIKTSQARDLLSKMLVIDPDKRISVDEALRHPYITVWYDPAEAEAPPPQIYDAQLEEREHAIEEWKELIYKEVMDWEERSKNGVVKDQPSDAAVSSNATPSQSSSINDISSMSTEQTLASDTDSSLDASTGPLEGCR

[8] = target: Vascular endothelial growth factor receptor 1 (Homo sapiens, UniProt P17948); assay: Inhibition of Flt1(unknown origin) after 60 mins by TR-FRET assay
Sequence of Vascular endothelial growth factor receptor 1 (P17948 whole entry): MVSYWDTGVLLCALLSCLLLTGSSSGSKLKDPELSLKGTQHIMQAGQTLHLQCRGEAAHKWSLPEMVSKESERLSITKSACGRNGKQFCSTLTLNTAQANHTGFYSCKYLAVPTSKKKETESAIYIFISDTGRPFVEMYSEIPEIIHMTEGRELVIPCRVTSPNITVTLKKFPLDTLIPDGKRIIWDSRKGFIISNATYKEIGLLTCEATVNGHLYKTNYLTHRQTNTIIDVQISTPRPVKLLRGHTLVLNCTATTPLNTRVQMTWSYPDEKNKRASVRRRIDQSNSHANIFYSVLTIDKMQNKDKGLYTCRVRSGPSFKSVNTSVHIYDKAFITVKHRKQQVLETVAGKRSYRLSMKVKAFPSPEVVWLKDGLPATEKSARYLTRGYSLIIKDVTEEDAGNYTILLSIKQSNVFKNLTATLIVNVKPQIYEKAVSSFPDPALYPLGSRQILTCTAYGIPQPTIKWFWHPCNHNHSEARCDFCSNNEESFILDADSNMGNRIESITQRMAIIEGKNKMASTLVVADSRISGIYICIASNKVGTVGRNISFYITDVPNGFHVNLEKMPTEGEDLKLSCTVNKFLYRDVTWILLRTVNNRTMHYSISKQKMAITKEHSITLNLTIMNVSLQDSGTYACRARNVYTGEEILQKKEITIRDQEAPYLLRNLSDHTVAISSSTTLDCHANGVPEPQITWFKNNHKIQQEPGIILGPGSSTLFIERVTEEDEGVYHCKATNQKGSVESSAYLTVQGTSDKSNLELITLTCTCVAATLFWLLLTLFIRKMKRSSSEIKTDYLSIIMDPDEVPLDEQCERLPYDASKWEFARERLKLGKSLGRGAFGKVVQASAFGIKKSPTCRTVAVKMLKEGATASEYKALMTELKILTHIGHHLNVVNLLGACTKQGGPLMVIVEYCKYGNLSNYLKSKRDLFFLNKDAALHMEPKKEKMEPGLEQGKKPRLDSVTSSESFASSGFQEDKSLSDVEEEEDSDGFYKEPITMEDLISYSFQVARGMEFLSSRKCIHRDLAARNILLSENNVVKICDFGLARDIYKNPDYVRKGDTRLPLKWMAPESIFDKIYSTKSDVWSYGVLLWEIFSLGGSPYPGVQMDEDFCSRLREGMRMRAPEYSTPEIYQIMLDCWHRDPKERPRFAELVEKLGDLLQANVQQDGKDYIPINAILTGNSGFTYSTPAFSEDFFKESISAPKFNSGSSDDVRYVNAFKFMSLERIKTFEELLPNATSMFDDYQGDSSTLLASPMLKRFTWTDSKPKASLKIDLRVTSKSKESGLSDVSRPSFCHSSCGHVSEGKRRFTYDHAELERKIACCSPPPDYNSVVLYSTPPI

[9] = target: ALK tyrosine kinase receptor (Homo sapiens, UniProt Q9UM73); assay: Inhibition of ALK (unknown origin) after 60 mins by TR-FRET assay
Sequence of ALK tyrosine kinase receptor (Q9UM73 whole entry): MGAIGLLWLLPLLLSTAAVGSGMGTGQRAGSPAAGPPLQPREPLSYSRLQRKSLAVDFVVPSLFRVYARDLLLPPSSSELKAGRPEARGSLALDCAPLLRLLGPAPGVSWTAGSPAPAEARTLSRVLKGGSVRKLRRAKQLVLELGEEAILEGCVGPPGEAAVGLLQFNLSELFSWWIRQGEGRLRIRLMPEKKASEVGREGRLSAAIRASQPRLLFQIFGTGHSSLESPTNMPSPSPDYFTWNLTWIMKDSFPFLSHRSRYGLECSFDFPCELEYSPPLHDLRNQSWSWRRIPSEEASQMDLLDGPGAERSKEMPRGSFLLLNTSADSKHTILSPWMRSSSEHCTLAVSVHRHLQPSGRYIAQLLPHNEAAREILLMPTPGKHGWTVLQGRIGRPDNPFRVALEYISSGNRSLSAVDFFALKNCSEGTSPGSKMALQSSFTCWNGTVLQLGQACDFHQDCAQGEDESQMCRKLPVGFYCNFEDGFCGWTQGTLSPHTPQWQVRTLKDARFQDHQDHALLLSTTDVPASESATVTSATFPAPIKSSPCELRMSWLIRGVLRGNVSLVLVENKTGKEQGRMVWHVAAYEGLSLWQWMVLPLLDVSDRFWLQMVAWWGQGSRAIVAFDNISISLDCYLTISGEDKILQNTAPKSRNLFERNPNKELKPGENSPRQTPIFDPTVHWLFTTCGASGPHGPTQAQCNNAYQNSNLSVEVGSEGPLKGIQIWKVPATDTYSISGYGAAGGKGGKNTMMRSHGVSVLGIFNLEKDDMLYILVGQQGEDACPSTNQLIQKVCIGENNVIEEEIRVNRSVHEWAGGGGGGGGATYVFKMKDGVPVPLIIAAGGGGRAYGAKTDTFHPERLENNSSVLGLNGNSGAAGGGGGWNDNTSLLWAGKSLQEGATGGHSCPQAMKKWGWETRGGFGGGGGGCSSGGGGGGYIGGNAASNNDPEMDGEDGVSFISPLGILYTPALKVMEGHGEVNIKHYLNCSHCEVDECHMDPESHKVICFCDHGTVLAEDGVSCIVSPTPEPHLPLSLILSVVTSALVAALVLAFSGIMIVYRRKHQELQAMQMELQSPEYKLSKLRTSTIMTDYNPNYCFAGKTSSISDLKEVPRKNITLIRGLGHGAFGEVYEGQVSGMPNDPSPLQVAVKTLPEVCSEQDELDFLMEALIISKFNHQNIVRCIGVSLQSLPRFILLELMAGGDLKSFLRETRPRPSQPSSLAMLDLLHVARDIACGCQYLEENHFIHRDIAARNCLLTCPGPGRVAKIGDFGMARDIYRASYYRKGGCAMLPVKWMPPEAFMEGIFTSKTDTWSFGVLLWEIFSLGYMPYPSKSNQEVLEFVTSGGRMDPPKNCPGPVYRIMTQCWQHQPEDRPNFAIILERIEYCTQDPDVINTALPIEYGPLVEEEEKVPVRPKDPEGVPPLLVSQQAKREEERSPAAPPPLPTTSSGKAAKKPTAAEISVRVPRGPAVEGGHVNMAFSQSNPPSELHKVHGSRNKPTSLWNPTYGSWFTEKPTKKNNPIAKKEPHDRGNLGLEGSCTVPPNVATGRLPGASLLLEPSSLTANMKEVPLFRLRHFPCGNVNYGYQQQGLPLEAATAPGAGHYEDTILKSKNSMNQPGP

IC50 [1] [µM]	IC50 [2] [µM]	IC50 [3] [µM]	IC50 (Aurora kinase B) [µM]	IC50 [5] [µM]	IC50 [6] [µM]	IC50 [7] [µM]	IC50 [8] [µM]	IC50 [9] [µM]	Compound	IC50 [4] [µM]
4.14	> 10	> 10	> 10	> 10	> 10	> 10	> 10	–	Cc1n[nH]c2cc(Nc3nc(NC4CC4)c4occc4n3)ccc12	4.98
3.21	> 10	–	> 10	> 10	> 10	> 10	> 10	7.63	FC(F)(F)CNc1nc(Nc2ccc3cn[nH]c3c2)nc2ccoc12	–
> 10	> 10	0.379	> 10	> 10	> 10	> 10	9.13	> 10	CC1(C)OCC(=O)Nc2cc(Nc3nc(NCC(F)(F)F)c4occc4n3)ccc21	> 10
> 10	> 10	8.34	> 10	> 10	> 10	> 10	> 10	> 10	FC(F)(F)CNc1nc(Nc2ccc(N3CCOCC3)c(Cl)c2)nc2ccoc12	> 10
